{"source": "ChEMBL document CHEMBL2434920", "about": "“Synthesis, characterization and in vitro biological evaluation of some novel 1,3,5-triazine-Schiff base conjugates as potential antimycobacterial agents” (Bioorg Med Chem Lett, 2013)", "key": {"Vero": {"system": "Vero", "test": "Cytotoxicity against African green monkey Vero cells assessed as cell viability after 72 hrs by MTT assay", "assay_type": "cell-based", "details": "Chlorocebus sabaeus"}, "[1]": {"system": "Mycobacterium tuberculosis", "test": "Antimycobacterial activity against Mycobacterium tuberculosis H37Rv assessed as growth inhibition after 5 days by microplate Alamar Blue assay", "assay_type": "functional", "details": "120 h"}}}
{"smiles": "COc1nc(C)nc(/N=C(\\C)c2ccccc2O)n1", "values": [{"measurement": "IC50", "setting": "Vero", "result": "> 50", "unit": "µg/mL"}, {"measurement": "MIC", "setting": "[1]", "result": 25, "unit": "µg/mL"}]}
{"smiles": "COc1nc(C)nc(/N=C(\\C)c2ccc(O)cc2)n1", "values": [{"measurement": "IC50", "setting": "Vero", "result": "> 50", "unit": "µg/mL"}, {"measurement": "MIC", "setting": "[1]", "result": 25, "unit": "µg/mL"}]}
{"smiles": "COc1nc(C)nc(/N=C(\\C)c2ccc(O)cc2O)n1", "values": [{"measurement": "IC50", "setting": "Vero", "result": "> 50", "unit": "µg/mL"}, {"measurement": "MIC", "setting": "[1]", "result": 25, "unit": "µg/mL"}]}
{"smiles": "COc1nc(C)nc(/N=C(\\C)c2cc(O)ccc2O)n1", "values": [{"measurement": "IC50", "setting": "Vero", "result": "> 50", "unit": "µg/mL"}, {"measurement": "MIC", "setting": "[1]", "result": 6.25, "unit": "µg/mL"}]}
{"smiles": "COc1nc(C)nc(/N=C(\\C)c2cc(C)ccc2O)n1", "values": [{"measurement": "MIC", "setting": "[1]", "result": 50, "unit": "µg/mL"}]}
{"smiles": "COc1nc(C)nc(/N=C(\\C)c2cccc(C)c2O)n1", "values": [{"measurement": "MIC", "setting": "[1]", "result": 50, "unit": "µg/mL"}]}
{"smiles": "COc1nc(C)nc(/N=C(\\C)c2cccc([N+](=O)[O-])c2)n1", "values": [{"measurement": "IC50", "setting": "Vero", "result": "> 50", "unit": "µg/mL"}, {"measurement": "MIC", "setting": "[1]", "result": 25, "unit": "µg/mL"}]}
{"smiles": "COc1nc(C)nc(/N=C(\\C)c2ccc([N+](=O)[O-])cc2)n1", "values": [{"measurement": "IC50", "setting": "Vero", "result": "> 50", "unit": "µg/mL"}, {"measurement": "MIC", "setting": "[1]", "result": 12.5, "unit": "µg/mL"}]}
{"smiles": "COc1nc(C)nc(/N=C(\\C)c2cccs2)n1", "values": [{"measurement": "IC50", "setting": "Vero", "result": "> 50", "unit": "µg/mL"}, {"measurement": "MIC", "setting": "[1]", "result": 25, "unit": "µg/mL"}]}
{"smiles": "COc1nc(C)nc(/N=C(\\C)c2cccnc2)n1", "values": [{"measurement": "MIC", "setting": "[1]", "result": 50, "unit": "µg/mL"}]}
{"smiles": "COc1nc(C)nc(/N=C(\\C)c2ccc3ccccc3c2)n1", "values": [{"measurement": "MIC", "setting": "[1]", "result": 50, "unit": "µg/mL"}]}
{"smiles": "COc1nc(C)nc(/N=C(\\C)c2ccc3c(c2)Cc2ccccc2-3)n1", "values": [{"measurement": "MIC", "setting": "[1]", "result": 50, "unit": "µg/mL"}]}
{"smiles": "COc1nc(C)nc(/N=C/c2ccc(C)cc2)n1", "values": [{"measurement": "IC50", "setting": "Vero", "result": "> 50", "unit": "µg/mL"}, {"measurement": "MIC", "setting": "[1]", "result": 25, "unit": "µg/mL"}]}
{"smiles": "COc1nc(C)nc(/N=C/c2ccc(N(C)C)cc2)n1", "values": [{"measurement": "IC50", "setting": "Vero", "result": "> 50", "unit": "µg/mL"}, {"measurement": "MIC", "setting": "[1]", "result": 25, "unit": "µg/mL"}]}
{"smiles": "COc1nc(C)nc(/N=C/c2cc(OC)c(OC)c(OC)c2)n1", "values": [{"measurement": "IC50", "setting": "Vero", "result": "> 50", "unit": "µg/mL"}, {"measurement": "MIC", "setting": "[1]", "result": 3.12, "unit": "µg/mL"}]}
{"smiles": "CCOc1cc(/C=N/c2nc(C)nc(OC)n2)ccc1O", "values": [{"measurement": "IC50", "setting": "Vero", "result": "> 50", "unit": "µg/mL"}, {"measurement": "MIC", "setting": "[1]", "result": 25, "unit": "µg/mL"}]}
{"smiles": "COc1nc(C)nc(/N=C/c2cccc([N+](=O)[O-])c2)n1", "values": [{"measurement": "MIC", "setting": "[1]", "result": 50, "unit": "µg/mL"}]}
{"smiles": "COc1nc(C)nc(/N=C/c2ccc(Cl)cc2)n1", "values": [{"measurement": "IC50", "setting": "Vero", "result": "> 50", "unit": "µg/mL"}, {"measurement": "MIC", "setting": "[1]", "result": 12.5, "unit": "µg/mL"}]}
{"smiles": "COc1nc(C)nc(/N=C/c2ccc(Cl)cc2Cl)n1", "values": [{"measurement": "IC50", "setting": "Vero", "result": "> 50", "unit": "µg/mL"}, {"measurement": "MIC", "setting": "[1]", "result": 12.5, "unit": "µg/mL"}]}
{"smiles": "COc1nc(C)nc(/N=C/c2cccc(Br)c2)n1", "values": [{"measurement": "IC50", "setting": "Vero", "result": "> 50", "unit": "µg/mL"}, {"measurement": "MIC", "setting": "[1]", "result": 12.5, "unit": "µg/mL"}]}
{"smiles": "COc1nc(C)nc(/N=C/c2ccc(Br)cc2)n1", "values": [{"measurement": "IC50", "setting": "Vero", "result": "> 50", "unit": "µg/mL"}, {"measurement": "MIC", "setting": "[1]", "result": 25, "unit": "µg/mL"}]}
{"smiles": "COc1nc(C)nc(/N=C/c2cc(Cl)cc(Br)c2O)n1", "values": [{"measurement": "IC50", "setting": "Vero", "result": "> 50", "unit": "µg/mL"}, {"measurement": "MIC", "setting": "[1]", "result": 6.25, "unit": "µg/mL"}]}
{"smiles": "C=CCOc1ccc(/C=N/c2nc(C)nc(OC)n2)cc1", "values": [{"measurement": "IC50", "setting": "Vero", "result": "> 50", "unit": "µg/mL"}, {"measurement": "MIC", "setting": "[1]", "result": 25, "unit": "µg/mL"}]}
{"smiles": "COc1nc(C)nc(/N=C/c2ccc[nH]2)n1", "values": [{"measurement": "IC50", "setting": "Vero", "result": "> 50", "unit": "µg/mL"}, {"measurement": "MIC", "setting": "[1]", "result": 25, "unit": "µg/mL"}]}
{"smiles": "COc1nc(C)nc(/N=C/c2cccnc2)n1", "values": [{"measurement": "MIC", "setting": "[1]", "result": 50, "unit": "µg/mL"}]}
{"smiles": "COc1nc(C)nc(/N=C/c2c[nH]c3ccccc23)n1", "values": [{"measurement": "MIC", "setting": "[1]", "result": 50, "unit": "µg/mL"}]}
{"smiles": "COc1nc(C)nc(/N=C/c2c3ccccc3cc3ccccc23)n1", "values": [{"measurement": "MIC", "setting": "[1]", "result": 50, "unit": "µg/mL"}]}
{"smiles": "COc1nc(C)nc(/N=C(\\C)c2ccccc2)n1", "values": [{"measurement": "MIC", "setting": "[1]", "result": 50, "unit": "µg/mL"}]}
{"smiles": "COc1nc(C)nc(/N=C(\\C)c2ccc(C)cc2)n1", "values": [{"measurement": "IC50", "setting": "Vero", "result": "> 50", "unit": "µg/mL"}, {"measurement": "MIC", "setting": "[1]", "result": 12.5, "unit": "µg/mL"}]}
{"smiles": "COc1cccc(/C(C)=N/c2nc(C)nc(OC)n2)c1", "values": [{"measurement": "IC50", "setting": "Vero", "result": "> 50", "unit": "µg/mL"}, {"measurement": "MIC", "setting": "[1]", "result": 12.5, "unit": "µg/mL"}]}
{"smiles": "COc1ccc(/C(C)=N/c2nc(C)nc(OC)n2)cc1", "values": [{"measurement": "MIC", "setting": "[1]", "result": 50, "unit": "µg/mL"}]}
{"smiles": "COc1nc(C)nc(/N=C/c2ccccc2)n1", "values": [{"measurement": "MIC", "setting": "[1]", "result": 50, "unit": "µg/mL"}]}
{"smiles": "CC[C@@H](CO)NCCN[C@@H](CC)CO", "note": "[ETHAMBUTOL]", "values": [{"measurement": "IC50", "setting": "Vero", "result": "> 50", "unit": "µg/mL"}, {"measurement": "MIC", "setting": "[1]", "result": 3.12, "unit": "µg/mL"}]}
{"smiles": "NC(=O)c1cnccn1", "note": "[PYRAZINAMIDE]", "values": [{"measurement": "IC50", "setting": "Vero", "result": "> 50", "unit": "µg/mL"}, {"measurement": "MIC", "setting": "[1]", "result": 3.12, "unit": "µg/mL"}]}
{"smiles": "CN[C@@H]1[C@H](O[C@H]2[C@H](O[C@H]3[C@H](O)[C@@H](O)[C@H](N=C(N)N)[C@@H](O)[C@@H]3N=C(N)N)O[C@@H](C)[C@]2(O)C=O)O[C@@H](CO)[C@H](O)[C@H]1O", "note": "[STREPTOMYCIN]", "values": [{"measurement": "IC50", "setting": "Vero", "result": "> 50", "unit": "µg/mL"}, {"measurement": "MIC", "setting": "[1]", "result": 6.25, "unit": "µg/mL"}]}
